Test results reported in patent publication US20240247080A1, “GLP1/GIP/NPY2 RECEPTOR TRIPLE AGONISTS” (Boehringer Ingelheim International GmbH, priority 2022, published 2024).
Read-outs that look alike come from different tables or passages of the source. Starred links: 1 amine or outer side, 2 acyl side, 3 side chain; linkers in the order of their positions; H or OH if unused. Non-standard residues stand in square brackets, D forms with d. Groups on a side chain read outwards from the residue. *: point of attachment. C20 diacid = O=C(O)CCCCCCCCCCCCCCCCCCC(=O)*; C18 diacid = O=C(O)CCCCCCCCCCCCCCCCC(=O)*; γGlu = O=C(O)[C@H](CCC(=O)[*:2])N[*:1]; εLys = N[C@@H](CCCCN[*:1])C(=O)[*:2]; AEEA = NCCOCCOCC(=O)O; Aib = CC(C)(N)C(=O)O

Key:
Assay type in all cases: cell-based
Details in all cases: CreLuc reporter gene assay
hGLP1R = target: T1, hGLP1R (Homo sapiens, UniProt P43220); experiment: hGLP1R CreLuc reporter gene assay in 0.5% and 100% plasma
T1 construct: expressed in transfected cells; host or cells: HEK-293 cells carrying a CRE-luciferase reporter gene
T1 sequence (P43220 24-463): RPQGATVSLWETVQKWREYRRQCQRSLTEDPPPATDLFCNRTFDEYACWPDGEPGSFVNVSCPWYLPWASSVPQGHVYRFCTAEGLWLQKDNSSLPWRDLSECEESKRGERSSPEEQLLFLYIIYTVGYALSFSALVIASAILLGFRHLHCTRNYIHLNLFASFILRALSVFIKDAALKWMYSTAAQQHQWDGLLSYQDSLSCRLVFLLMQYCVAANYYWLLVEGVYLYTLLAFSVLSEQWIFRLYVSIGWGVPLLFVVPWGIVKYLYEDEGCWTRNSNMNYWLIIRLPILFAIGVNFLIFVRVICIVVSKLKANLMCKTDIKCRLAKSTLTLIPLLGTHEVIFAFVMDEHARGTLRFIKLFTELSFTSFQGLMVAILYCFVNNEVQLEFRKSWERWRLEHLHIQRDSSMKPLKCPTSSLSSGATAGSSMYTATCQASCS
Method in brief: (§1)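 Agonist EC50s came from 8-concentration curves over four decades, fitted by non-linear variable-slope regression of CRE-driven luciferase luminescence. Cells were exposed 4 h at 37 °C, in buffer with 0.5% human plasma or in 100% plasma; GIPR was expressed in CHO cells, GLP-1R and NPY2R in HEK cells.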

hGIPR = target: T2, hGIPR (Homo sapiens, UniProt P48546); experiment: hGIPR CreLuc reporter gene assay in 0.5% and 100% plasma
T2 construct: expressed in transfected cells; host or cells: CHO cells carrying a CRE-luciferase reporter gene
T2 sequence (P48546 22-466): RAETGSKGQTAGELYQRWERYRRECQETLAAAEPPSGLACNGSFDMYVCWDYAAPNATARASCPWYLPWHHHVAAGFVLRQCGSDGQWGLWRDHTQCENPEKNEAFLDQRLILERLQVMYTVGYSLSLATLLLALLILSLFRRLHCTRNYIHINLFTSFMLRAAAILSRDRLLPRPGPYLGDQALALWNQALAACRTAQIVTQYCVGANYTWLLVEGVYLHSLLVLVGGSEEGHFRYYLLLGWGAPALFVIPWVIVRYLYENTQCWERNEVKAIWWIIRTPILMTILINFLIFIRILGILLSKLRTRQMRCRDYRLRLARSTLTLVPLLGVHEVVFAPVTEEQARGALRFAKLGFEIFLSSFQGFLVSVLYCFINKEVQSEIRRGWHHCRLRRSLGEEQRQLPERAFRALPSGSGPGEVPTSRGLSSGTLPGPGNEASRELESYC
Method in brief: as §1

hNPY2R = target: T3, hNPY2R (Homo sapiens, UniProt P49146); experiment: hNPY2R CreLuc reporter gene assay in 0.5% and 100% plasma
T3 construct: expressed in transfected cells; host or cells: HEK-293 cells carrying a CRE-luciferase reporter gene
T3 sequence (P49146 1-381): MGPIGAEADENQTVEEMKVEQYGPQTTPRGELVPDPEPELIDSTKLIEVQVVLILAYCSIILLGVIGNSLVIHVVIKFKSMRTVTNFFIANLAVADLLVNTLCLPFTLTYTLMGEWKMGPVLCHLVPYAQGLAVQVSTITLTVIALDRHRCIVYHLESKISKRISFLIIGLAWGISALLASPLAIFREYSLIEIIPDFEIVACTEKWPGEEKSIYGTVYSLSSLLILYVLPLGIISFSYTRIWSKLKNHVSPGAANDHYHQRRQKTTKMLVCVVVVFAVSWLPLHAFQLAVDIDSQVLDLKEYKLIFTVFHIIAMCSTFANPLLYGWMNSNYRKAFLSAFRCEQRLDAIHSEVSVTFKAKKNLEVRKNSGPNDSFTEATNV
Method in brief: as §1

[1] = 0.5% human plasma, read-out: hGLP1R 0.5% hP
[2] = 0.5% human plasma, read-out: hGIPR 0.5% hP
[3] = 100% human plasma, read-out: hGIPR 100% hP
[4] = 0.5% human plasma, read-out: hNPY2R 0.5% hP
[5] = 100% human plasma, read-out: hNPY2R 100% hP
[6] = 100% human plasma, read-out: hGLP1R 100% hP

| Substance | EC50 (hGLP1R; [1]) [nM] | EC50 (hGIPR; [2]) [nM] | EC50 (hGIPR; [3]) [nM] | EC50 (hNPY2R; [4]) [nM] | EC50 (hNPY2R; [5]) [nM] | EC50 (hGLP1R; [6]) [nM] |
| --- | --- | --- | --- | --- | --- | --- |
| H-Y[Aib]EGTFTSDYSI[Aib]LEKQAQ[Aib]AFVEWLIK([εLys-γGlu-γGlu-γGlu-γGlu-γGlu-γGlu-C20 diacid])GGPSSYVSIRHYYNWLTRQRY-NH2 [Compound 9, Y-Aib-E-G-T-F-T-S-D-Y-S-I-Aib-L-E-K-Q-A-Q-Aib-A-F-V-E-W-L-I-K(1,3)-GGPSSYVSIRHYYNWLTRQRY-NH2.C20DA-gGlu-gGlu-gGlu-gGlu-gGlu-gGlu-eLys(1,2)] | 0.46 | 0.21 | 2.03 | 15.2 | 18.9 |  |
| H-Y[Aib]EGTFTSDYSI[Aib]LEKQAQ[Aib]AFVEWLIK([εLys-γGlu-γGlu-γGlu-γGlu-γGlu-γGlu-C20 diacid])GGPSSYVSLRHYYNWLTRQRY-NH2 [Compound 40, Y-Aib-E-G-T-F-T-S-D-Y-S-I-Aib-L-E-K-Q-A-Q-Aib-A-F-V-E-W-L-I-K(1,3)-GGPSSYVSLRHYYNWLTRQRY-NH2.C20DA-gGlu-gGlu-gGlu-gGlu-gGlu-gGlu-eLys(1,2)] | 0.46 | 0.48 | 4.36 | 11.9 | 26.4 |  |
| H-Y[Aib]EGTFTSDYSI[Aib]LEKQAQ[Aib]AFVEWLIK([εLys-γGlu-γGlu-γGlu-γGlu-γGlu-γGlu-C20 diacid])GGPSTGASLRHYYNWLTRQRY-NH2 [Compound 244, Y-Aib-E-G-T-F-T-S-D-Y-S-I-Aib-L-E-K-Q-A-Q-Aib-A-F-V-E-W-L-I-K(1,3)-GGPSTGASLRHYYNWLTRQRY-NH2.C20DA-gGlu-gGlu-gGlu-gGlu-gGlu-gGlu-eLys(1,2)] | 0.19 | 0.32 |  | 13.5 |  |  |
| H-Y[Aib]EGTFTSDYSI[Aib]LEKQAQ[Aib]AFVEWLIK([εLys-γGlu-γGlu-γGlu-γGlu-γGlu-γGlu-C20 diacid])GGPSYGASLRHYYNWLTRQRY-NH2 [Compound 232, Y-Aib-E-G-T-F-T-S-D-Y-S-I-Aib-L-E-K-Q-A-Q-Aib-A-F-V-E-W-L-I-K(1,3)-GGPSYGASLRHYYNWLTRQRY-NH2.C20DA-gGlu-gGlu-gGlu-gGlu-gGlu-gGlu-eLys(1,2)] | 0.21 | 0.19 | 1.64 | 15.3 | 36.8 |  |
| H-Y[Aib]EGTFTSDYSI[Aib]LEKQAQ[Aib]AFVEWLIK([εLys-γGlu-γGlu-γGlu-γGlu-γGlu-γGlu-C20 diacid])GGPSYYVSLRHYYNWLTRQRY-NH2 [Compound 80, Y-Aib-E-G-T-F-T-S-D-Y-S-I-Aib-L-E-K-Q-A-Q-Aib-A-F-V-E-W-L-I-K(1,3)-GGPSYYVSLRHYYNWLTRQRY-NH2.C20DA-gGlu-gGlu-gGlu-gGlu-gGlu-gGlu-eLys(1,2)] | 1.6 | 0.79 |  | 12.8 | 54.8 |  |
| H-Y[Aib]EGTFTSDYSI[Aib]LEKQAQ[Aib]AFVEWLIK([εLys-γGlu-γGlu-γGlu-γGlu-γGlu-γGlu-γGlu-C20 diacid])GGPSEGASLRHYYNWLTRQRY-NH2 [Compound 288, Y-Aib-E-G-T-F-T-S-D-Y-S-I-Aib-L-E-K-Q-A-Q-Aib-A-F-V-E-W-L-I-K(1,3)-GGPSEGASLRHYYNWLTRQRY-NH2.C20DA-gGlu-gGlu-gGlu-gGlu-gGlu-gGlu-gGlu-eLys(1,2)] | 0.17 | 0.51 | 2.43 | 14.3 | 36.8 |  |
| H-Y[Aib]EGTFTSDYSI[Aib]LEKQAQ[Aib]AFVQWLIK([AEEA-AEEA-Glu-Glu-Glu-C18 diacid])GGPEEGASLRHYYNWLTRQRY-NH2 [Compound 188, Y-Aib-E-G-T-F-T-S-D-Y-S-I-Aib-L-E-K-Q-A-Q-Aib-A-F-V-Q-W-L-I-K(1,3)-GGPEEGASLRHYYNWLTRQRY-NH2.C18DA-E-E-E-OEG-OEG(1,2)] | 0.15 | 0.12 |  | 16.9 |  |  |
| H-Y[Aib]EGTFTSDYSI[Aib]LEKQAQ[Aib]AFVQWLIK([AEEA-AEEA-Glu-Glu-Glu-Glu-C18 diacid])GGPEEGASLRHYYNWLTRQRY-NH2 [Compound 177, Y-Aib-E-G-T-F-T-S-D-Y-S-I-Aib-L-E-K-Q-A-Q-Aib-A-F-V-Q-W-L-I-K(1,3)-GGPEEGASLRHYYNWLTRQRY-NH2.C18DA-E-E-E-E-OEG-OEG(1,2)] | 0.16 | 0.28 |  | 18.7 | 115 |  |

Second part, the substance after the results:

| EC50 (hGLP1R; [1]) [nM] | EC50 (hGIPR; [2]) [nM] | EC50 (hGIPR; [3]) [nM] | EC50 (hNPY2R; [4]) [nM] | EC50 (hNPY2R; [5]) [nM] | EC50 (hGLP1R; [6]) [nM] | Substance |
| --- | --- | --- | --- | --- | --- | --- |
| 0.09 | 0.12 | 0.65 | 18.7 |  | 3.17 | H-Y[Aib]EGTFTSDYSI[Aib]LEKQAQ[Aib]AFVQWLIK([AEEA-AEEA-Glu-Glu-Glu-Glu-C18 diacid])GGPESGASLRHYYNWLTRQRY-NH2 [Compound 52, Y-Aib-E-G-T-F-T-S-D-Y-S-I-Aib-L-E-K-Q-A-Q-Aib-A-F-V-Q-W-L-I-K(1,3)-GGPESGASLRHYYNWLTRQRY-NH2.C18DA-E-E-E-E-OEG-OEG(1,2)] |
| 0.11 | 0.35 |  | 13.6 |  | 4.76 | H-Y[Aib]EGTFTSDYSI[Aib]LEKQAQ[Aib]AFVQWLIK([AEEA-AEEA-Glu-Glu-Glu-Glu-C20 diacid])GGPSEGASLRHYYNWLTRQRY-NH2 [Compound 239, Y-Aib-E-G-T-F-T-S-D-Y-S-I-Aib-L-E-K-Q-A-Q-Aib-A-F-V-Q-W-L-I-K(1,3)-GGPSEGASLRHYYNWLTRQRY-NH2.C20DA-E-E-E-E-OEG-OEG(1,2)] |
| 0.16 | 1.15 | 0.79 | 15.8 | 48.7 |  | H-Y[Aib]EGTFTSDYSI[Aib]LEKQAQ[Aib]AFVQWLIK([AEEA-AEEA-γGlu-γGlu-γGlu-C18 diacid])GGPEEGASLRHYYNWLTRQRY-NH2 [Compound 144, Y-Aib-E-G-T-F-T-S-D-Y-S-I-Aib-L-E-K-Q-A-Q-Aib-A-F-V-Q-W-L-I-K(1,3)-GGPEEGASLRHYYNWLTRQRY-NH2.C18DA-gGlu-gGlu-gGlu-OEG-OEG(1,2)] |
| 0.14 | 0.77 | 0.73 | 14 |  |  | H-Y[Aib]EGTFTSDYSI[Aib]LEKQAQ[Aib]AFVQWLIK([AEEA-AEEA-γGlu-γGlu-γGlu-γGlu-C18 diacid])GGPEEGASLRHYYNWLTRQRY-NH2 [Compound 146, Y-Aib-E-G-T-F-T-S-D-Y-S-I-Aib-L-E-K-Q-A-Q-Aib-A-F-V-Q-W-L-I-K(1,3)-GGPEEGASLRHYYNWLTRQRY-NH2.C18DA-gGlu-gGlu-gGlu-gGlu-OEG-OEG(1,2)] |
| 0.05 | 0.24 | 0.31 | 10.2 |  | 2 | H-Y[Aib]EGTFTSDYSI[Aib]LEKQAQ[Aib]AFVQWLIK([AEEA-AEEA-γGlu-γGlu-γGlu-γGlu-C18 diacid])GGPESGASLRHYYNWLTRQRY-NH2 [Compound 58, Y-Aib-E-G-T-F-T-S-D-Y-S-I-Aib-L-E-K-Q-A-Q-Aib-A-F-V-Q-W-L-I-K(1,3)-GGPESGASLRHYYNWLTRQRY-NH2.C18DA-gGlu-gGlu-gGlu-gGlu-OEG-OEG(1,2)] |
| 0.07 | 0.12 | 0.71 |  | 21.1 | 1.69 | H-Y[Aib]EGTFTSDYSI[Aib]LEKQAQ[Aib]AFVQWLIK([AEEA-AEEA-γGlu-γGlu-γGlu-γGlu-C18 diacid])GGPSEGASLRHYYNWLTRQRY-NH2 [Compound 270, Y-Aib-E-G-T-F-T-S-D-Y-S-I-Aib-L-E-K-Q-A-Q-Aib-A-F-V-Q-W-L-I-K(1,3)-GGPSEGASLRHYYNWLTRQRY-NH2.C18DA-gGlu-gGlu-gGlu-gGlu-OEG-OEG(1,2)] |
| 0.11 | 0.27 | 0.94 | 12.4 | 24.9 | 3.07 | H-Y[Aib]EGTFTSDYSI[Aib]LEKQAQ[Aib]AFVQWLIK([AEEA-AEEA-γGlu-γGlu-γGlu-γGlu-C18 diacid])GGPSEPASLRHYYNWLTRQRY-NH2 [Compound 173, Y-Aib-E-G-T-F-T-S-D-Y-S-I-Aib-L-E-K-Q-A-Q-Aib-A-F-V-Q-W-L-I-K(1,3)-GGPSEPASLRHYYNWLTRQRY-NH2.C18DA-gGlu-gGlu-gGlu-gGlu-OEG-OEG(1,2)] |
